Here are results for 3 compounds from EP0888346B1, “CORALYNE ANALOGS AS TOPOISOMERASE INHIBITORS” (RUTGERS, THE STATE UNIVERSITY OF NEW JERSEY, priority 1996, dated 1997).

Data set [1] relates to Human lymphoblast RPMI 8402 cells. Briefly: MTT-microtiter plate tetrazolinium cytotoxicity assay (MTA). It counts as cell-based. The following applies: Homo sapiens, RPMI 8402, 96 h, read-out: Cytotoxicity RPMI 8402. An excerpt: (§1) The results were plotted and the IC50 then measured.
Data set [2] deals with human epidermoid carcinoma KB 3-1 cell line. Kind of data set: MTA cytotoxicity assay, epidermoid carcinoma cells. The settings on record: KB 3-1, 96 h, read-out: Cytotoxicity KB3-1. It is filed as cell-based. On the procedure: as §1
(§2) The coralyne analog 7c was tested for its effectiveness against glioblastoma cells. The assay used was similar to that described above for the RPMI-8402 cell line. The results are shown in table 2 below which compares the effect of Compound 7c against the leukemia cell line (RPMI 8402), epidermal carncinoma (KB3-1) and glioblastoma (SF-268): Table 2

For data set [3], the system named is glioblastoma cell line SF-268. Briefly: MTA cytotoxicity assay, glioblastoma cells. It is filed as cell-based. The settings on record: Homo sapiens, SF-268, 96 h, read-out: Cytotoxicity SF-268. As to the method:
as §1, §2

Data set [4] deals with yeast cells expressing human topoisomerase I. Kind of data set: Yeast cytotoxicity assay, strain expressing human topo I. The following applies: plates with 1 µM drug (camptothecin 0.5 µM), 3 days at 30°C. It is filed as cell-based, S. cerevisiae. The source says:
(§3) It has been established that yeast can survive when topoisomerase I function is obliterated, and that the topoisomerase I poisons only kill cells having a functional topoisomerase I (Bjornsti et al. Cancer Res. 49:6318-6323 (1989)).
(§4) The topoisomerase I-specific in vivo cytotoxicity assay was adapted from Knab et al. (Knab et al., J. Biol. Chem. 268:22322-22330 (1993)). In this system, various topo I genes cloned into the single copy yeast plasmid vector, YCpGAL1 (Knab et al., J. Biol. Chem. 268:22322-22330 (1993)), are expressed under the control of the GAL1 promoter in the JN2-134 strain of S. cerevisiae (MATa, rad52::LEU2, trp1, ade2-1,his7, ura3-52, isel, top1-1, leu2) (Bjornsti et al., Cancer Res. 49:6318-6323 (1989)). The topo I constructs in the vector are, respectively, the wild-type yeast topo I (YCpGAL-ScTOP1), a non-functional yeast topo I where the active site tyrosine-727 is mutated to a phenylalanine (YCpGAL1-Sctop1Y727F) (Knab et al., J. Biol. Chem. 268:22322-22330 (1993)), and the wild type human topoisomerase I (YCpGAL-hTOP1) (Bjornsti et al., Cancer Res. 49:6318-6323 (1989)). To qualitatively test the cytotoxicity and the topo I specificity of the drugs, yeast cells containing the specific plasmid were serially diluted (5-fold) and were grown in dropout medium supplemented with uracil and 2% galactose In addition, the plates contained: A: Control, no drug in the plate; B: Camptothecin (CPT), 0.5 µM; C: Coralyne, 1 µM; D: Methylenedioxy-dihydro-demethyl-coralyne (MDD-Coralyne), 1 µM, and E: Nitidine, 1 µM. The plates were grown for 3 days at 30°C to assess the lethal effect of the different compounds on the various topoisomerase I enzymes expressed in S. cerevisiae.and the drug being tested.

Data set [5] concerns yeast cells expressing functional yeast topoisomerase I. Kind of data set: Yeast cytotoxicity assay, strain expressing wild-type yeast topo I. It is filed as cell-based, S. cerevisiae. The settings on record: plates with 1 µM drug (camptothecin 0.5 µM), 3 days at 30°C.
Description: as §3, §4

The subject of data set [6] is yeast cells expressing non-functional yeast topoisomerase I. Kind of data set: Yeast cytotoxicity assay, strain expressing non-functional yeast topo I. It is filed as cell-based, S. cerevisiae. The following applies: plates with 1 µM drug (camptothecin 0.5 µM), 3 days at 30°C.
Description: as §3, §4

The target in data set [7] is T1, recombinant CPT-K5 topoisomerase I (Homo sapiens, UniProt P11387, D533G).
T1 construct: 15 amino acid vector-derived fusion (pET-11a leader); made in house; host or cells: E. coli BL21(DE3)
T1 sequence (P11387 1-765 D533G): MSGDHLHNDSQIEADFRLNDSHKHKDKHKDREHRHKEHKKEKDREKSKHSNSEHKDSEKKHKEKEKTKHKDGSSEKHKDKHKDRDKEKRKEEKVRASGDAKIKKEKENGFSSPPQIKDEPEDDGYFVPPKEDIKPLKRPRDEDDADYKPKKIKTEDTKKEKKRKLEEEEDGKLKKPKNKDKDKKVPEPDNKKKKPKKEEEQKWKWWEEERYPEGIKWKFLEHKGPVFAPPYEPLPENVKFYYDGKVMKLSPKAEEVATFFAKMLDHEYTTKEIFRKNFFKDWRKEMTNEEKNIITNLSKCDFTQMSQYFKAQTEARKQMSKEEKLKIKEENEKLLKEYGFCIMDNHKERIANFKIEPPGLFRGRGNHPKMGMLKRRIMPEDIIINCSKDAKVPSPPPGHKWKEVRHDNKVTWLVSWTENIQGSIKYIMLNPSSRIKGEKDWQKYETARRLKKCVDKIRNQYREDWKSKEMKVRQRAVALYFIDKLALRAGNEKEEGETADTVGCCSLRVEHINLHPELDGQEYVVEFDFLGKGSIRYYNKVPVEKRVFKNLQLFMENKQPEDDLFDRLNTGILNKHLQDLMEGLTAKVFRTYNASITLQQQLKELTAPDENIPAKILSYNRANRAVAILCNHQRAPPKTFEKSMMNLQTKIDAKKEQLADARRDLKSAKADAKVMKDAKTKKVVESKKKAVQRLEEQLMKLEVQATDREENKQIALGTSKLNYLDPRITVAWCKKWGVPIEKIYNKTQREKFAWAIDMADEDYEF
Briefly: Cleavage assay with camptothecin-resistant mutant topo I. It counts as biochemical. The following applies: relative to wildtype human topoisomerase I. On the procedure:
Cleavage assays for the recombinant topoisomerases I and calf thymus topoisomerases I and II were done as described (Liu et al., J. Biol. Chem. 258:15365-15370 (1983)). The plasmid YEpG DNA used for the cleavage assays was prepared and labeled at its 3'-end using the published procedures.

In the case of `COc1cc2cc3c4cc(OC)c(OC)cc4cc[n+]3c(C)c2cc1OC` [coralyne], the IC50 in data set [1] came out at 3 µg/mL; in data set [2], 0.9 µg/mL; in data set [3], 0.1 µg/mL. In data set [4], the “cytotoxicity against yeast cells expressing human topoisomerase I (in words)” value is “no cytotoxicity”. Also, the “cytotoxicity against yeast cells expressing functional yeast topoisomerase I (in words)” value in data set [5] was “resistant”. Besides, the “cytotoxicity against yeast cells expressing non-functional yeast topoisomerase I (in words)” value in data set [6] was “no cytotoxicity”.
For the compound `COc1cc2c[n+](C)c3c4cc5c(cc4ccc3c2cc1OC)OCO5` [Nitidine, nitidine], in data set [4], the “cytotoxicity against yeast cells expressing human topoisomerase I (in words)” value was “highly cytotoxic”. For the same compound, the “cytotoxicity against yeast cells expressing functional yeast topoisomerase I (in words)” value in data set [5] is “not cytotoxic”. Moreover, in data set [6], the “cytotoxicity against yeast cells expressing non-functional yeast topoisomerase I (in words)” value was “not cytotoxic”. Further, the “resistance of recombinant CPT-K5 topoisomerase I to the drug” value in data set [7] is recorded as “less than 10 fold”.
With “Methylenedioxy-dihydro-demethyl-coralyne [MDD-coralyne]”, in data set [4], the “cytotoxicity against yeast cells expressing human topoisomerase I (in words)” value is “highly cytotoxic”. For the same compound, the “cytotoxicity against yeast cells expressing functional yeast topoisomerase I (in words)” value in data set [5] is “not cytotoxic”. In addition, the “cytotoxicity against yeast cells expressing non-functional yeast topoisomerase I (in words)” value in data set [6] was “not cytotoxic”.
